Reference: patent US7723523B2, “Tetrahydropyridothiophenes” (4SC AG, priority 2004, dated 2010)

What was measured:
[1] = tested on: RKO (RKOp27) human colon adenocarcinoma cells; assay: Alamar Blue cell viability assay, anti-proliferative/cytotoxic activity on proliferating RKOp27 cells; assay type: cell-based; settings: absence of Ponasterone A, 72 hours incubation, read-out: IC50 RKO p27 proliferating
Outline: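 RKOp27 subclone of RKO cells, 4000/well in DMEM with 10% FCS, was treated 24 h after seeding with semi-log compound dilutions in quadruplicate for 72 h at 37 °C, 5% CO2. Alamar Blue fluorescence (ex 544/em 590 nm) was read as % viability of untreated cells, and IC50 was taken from concentration-effect curves.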

[2] = tested on: RKO colon adenocarcinoma cells (RKOp27) arrested by expression of ectopic p27Kip1; assay: Alamar Blue cell viability assay on RKOp27 cells arrested by Ponasterone A-induced p27Kip1 (cell cycle specific mode of action); assay type: cell-based; settings: Homo sapiens, RKOp27, 72 h, cells arrested by p27Kip1 induced with 10 μM Ponasterone A, 72 hours incubation, read-out: IC50 RKO p27 arrested
Outline: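 Viability measured by Alamar Blue fluorescence (ex 544, em 590 nm) after 72 h, 37 °C compound exposure in quadruplicate, normalized to untreated cells as 100%. Cells were p27Kip1-arrested RKOp27, induced with 10 μM Ponasterone A at seeding; compound added 24 h later.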

SMILES | IC50 [2] | IC50 [1]
COCCOC(=O)N1CCc2c(sc(NC(=O)/C=C/c3ccco3)c2C#N)C1 [Example 240, 3-Cyano-2-((E)-3-furan-2-yl-allanoylamino)-4,7-dihydro-5H-thieno[2,3-c]pyridine-6-carboxylic acid 2-methoxy-ethyl ester] | ≥ 100 µM | ≤ 2 µM
N#Cc1c(NC(=O)/C=C/c2ccco2)sc2c1CCN(C(=O)OCc1ccccn1)C2 [Example 241, 3-Cyano-2-((E)-3-furan-2-yl-allanoylamino)-4,7-dihydro-5H-thieno[2,3-c]pyridine-6-carboxylic acid pyridin-2-ylmethyl ester] | ≥ 100 µM | ≤ 2 µM
N#Cc1c(NC(=O)/C=C/c2ccco2)sc2c1CCN(C(=O)OCc1cccnc1)C2 [Example 242, 3-Cyano-2-((E)-3-furan-2-yl-allanoylamino)-4,7-dihydro-5H-thieno[2,3-c]pyridine-6-carboxylic acid pyridin-3-ylmethyl ester] | ≥ 100 µM | ≤ 2 µM
N#Cc1c(NC(=O)/C=C/c2ccco2)sc2c1CCN(C(=O)OCCc1ccccn1)C2 [Example 243, 3-Cyano-2-((E)-3-furan-2-yl-allanoylamino)-4,7-dihydro-5H-thieno[2,3-c]pyridine-6-carboxylic acid 2-pyridin-2-yl-ethyl ester] | ≥ 100 µM | ≤ 2 µM

The next lines start with results.

IC50 [2] | SMILES | IC50 [1]
≥ 100 µM | CCOc1ccccc1/C=C/C(=O)Nc1sc2c(c1C#N)CCN(C(=O)OCc1ccncc1)C2 [Example 238, 3-Cyano-2-[(E)-3-(2-ethoxy-phenyl)-allanoylamino]-4,7-dihydro-5H-thieno[2,3-c]pyridine-6-carboxylic acid pyridin-4-ylmethyl ester] | ≤ 2 µM
≥ 100 µM | CCOc1ccccc1/C=C/C(=O)Nc1sc2c(c1C#N)CCN(C(=O)OCCc1ccccn1)C2 [Example 239, 3-Cyano-2-[(E)-3-(2-ethoxy-phenyl)-allanoylamino]-4,7-dihydro-5H-thieno[2,3-c]pyridine-6-carboxylic acid 2-pyridin-2-yl-ethyl ester] | ≤ 2 µM
